We go through nine compounds from ChEMBL document CHEMBL3637782, “GSK Tres Cantos Follow-up TB Screening Data” (2016).

≈ marks a conversion by molar mass, not a printed value.

For the experiment, the system named is Mycobacterium tuberculosis H37Rv. The experiment is described as follows: GSK_TB: Minimum inhibitory concentration against isoniazid and rifampicin resistant clinical isolates of Mycobacterium tuberculosis. The settings on record: ATCC25618. Format: functional.
Take `CNc1snc(C)c1C(=O)NCCOc1ccc(OC)cc1`: the MIC was 0.9 µM (≈ 0.289 µg/mL).

The compound `COc1ccc(-c2nnc3sc(Cc4csc(C)n4)nn23)cc1` gave an MIC of 1.3 µM (≈ 0.446 µg/mL).

The compound `Nc1ccc(C(O)CNCCc2ccccc2)cc1O` (centres undefined) yielded an MIC of 1.3 µM (≈ 0.354 µg/mL).

`O=C(Nc1nc2c(s1)CCCc1cccnc1-2)c1ccccc1C(F)(F)F` came in with an MIC of 1.3 µM (≈ 0.506 µg/mL).

Consider `NC(=O)c1ccc(CN(C2CC2)S(=O)(=O)c2ccccc2F)cc1`, for which the MIC was found to be 5 µM (≈ 1.74 µg/mL).

On to `CN(Cc1ccc(Cl)cc1)C(=O)CCc1nc2ccccc2oc1=O`, for which the MIC came out at 1.3 µM (≈ 0.464 µg/mL).

With `Clc1nnc(N2CCCC2)c2ccccc12`, the minimal inhibitory concentration (MIC) was 0.6 µM (≈ 0.14 µg/mL).

As for `CCOCn1ccc(NS(=O)(=O)c2ccc(N)cc2)nc1=O`, the minimum inhibitory concentration (MIC) turned out to be 20 µM (≈ 6.49 µg/mL).

For the compound `COc1ccc(CCNC(=O)C2(n3cnnn3)CCCCC2)cc1`, the MIC was 2.5 µM (≈ 0.824 µg/mL).
